Experimental data from the supplement of paper PMC10627819.

What was measured:
S. pneumoniae D39V [1] = assay: Bliss interaction score (quartile over a dose matrix) (fitness difference); higher = more antagonism (negative = synergy)
Summary of the method: (§1)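 Fitness was defined as normalised growth: OD595 at the start of stationary phase divided by the plate's robust no-drug mean and capped at 1. Single-drug fitness was inferred from combination measurements. The Bliss score is observed fitness minus the product of the single-drug values, summarised by quartiles across technical, biological and donor/recipient replicates.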

S. aureus DSM 20231 [2] = assay: as above
Summary of the method: as §1

B. subtilis 168 [3] = assay: as above
Summary of the method: as §1

S. aureus Newman [4] = assay: as above
Summary of the method: as §1

S. pneumoniae D39V [5] = assay: fitness (endpoint OD595 vs no drug) (fraction); higher = more growth
Summary of the method: (§2)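 Bacterial fitness was scored as optical density at the stationary-phase transition relative to the robust mean of no-drug control wells. Scores are capped at 1. The growth data were OD595 readings every 30 min for 14 h at 37 °C, background-subtracted against the first reading, from 384-well plates inoculated at OD595 0.01 in TSB, LB Lennox or CY.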

S. aureus DSM 20231 [6] = assay: as above
Summary of the method: as §2

B. subtilis 168 [7] = assay: as above
Summary of the method: as §2

S. aureus Newman [8] = assay: as above
Summary of the method: as §2
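For Bliss interaction score (quartile over a dose matrix) in this document: first quartile when negative (synergy) and third quartile when positive (antagonism).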
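For fitness (endpoint OD595 vs no drug) in this document: OD595 on entry to stationary phase over no-drug wells; at most 1.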

CCC[C@@H]1C[C@@H](C(=O)N[C@@H]([C@H]2O[C@H](SC)[C@H](O)[C@@H](O)[C@H]2O)[C@H](C)Cl)N(C)C1 [Clindamycin] + COc1c(N2C[C@@H]3CCCN[C@@H]3C2)c(F)cc2c(=O)c(C(=O)O)cn(C3CC3)c12 [Moxifloxacin]
Conditions | Bliss interaction score
B. subtilis 168 [3] | 0.041
S. aureus DSM 20231 [2] | 0.0751
S. aureus Newman [4] | 0.0705
S. pneumoniae D39V [1] | 0.0859

Conditions | fitness
B. subtilis 168 [7], first compound 0.0625 µg/mL, partner 0.0312 µg/mL | 0.0693
B. subtilis 168 [7], first compound 0.0625 µg/mL, partner 0.0625 µg/mL | 0.0631
B. subtilis 168 [7], first compound 0.0625 µg/mL, partner 0.125 µg/mL | 0.046
B. subtilis 168 [7], first compound 0.0625 µg/mL, partner 2 µg/mL | 0.0362
B. subtilis 168 [7], first compound 0.0625 µg/mL, partner 4 µg/mL | 0.0401
B. subtilis 168 [7], first compound 0.0625 µg/mL, partner 8 µg/mL | 0.0456
B. subtilis 168 [7], first compound 0.125 µg/mL, partner 0.0312 µg/mL | 0.0619
B. subtilis 168 [7], first compound 0.125 µg/mL, partner 0.0625 µg/mL | 0.0693
B. subtilis 168 [7], first compound 0.125 µg/mL, partner 0.125 µg/mL | 0.0534
B. subtilis 168 [7], first compound 0.125 µg/mL, partner 2 µg/mL | 0.0368
B. subtilis 168 [7], first compound 0.125 µg/mL, partner 4 µg/mL | 0.0309
B. subtilis 168 [7], first compound 0.125 µg/mL, partner 8 µg/mL | 0.0299
B. subtilis 168 [7], first compound 0.25 µg/mL, partner 0.0312 µg/mL | 0.0478
B. subtilis 168 [7], first compound 0.25 µg/mL, partner 0.0625 µg/mL | 0.0597
B. subtilis 168 [7], first compound 0.25 µg/mL, partner 0.125 µg/mL | 0.0484
B. subtilis 168 [7], first compound 0.25 µg/mL, partner 2 µg/mL | 0.0444
B. subtilis 168 [7], first compound 0.25 µg/mL, partner 4 µg/mL | 0.0401
B. subtilis 168 [7], first compound 0.25 µg/mL, partner 8 µg/mL | 0.0192
S. aureus DSM 20231 [6], first compound 0.0625 µg/mL, partner 0.0075 µg/mL | 0.0874
S. aureus DSM 20231 [6], first compound 0.0625 µg/mL, partner 0.015 µg/mL | 0.0867
S. aureus DSM 20231 [6], first compound 0.125 µg/mL, partner 0.0075 µg/mL | 0.0621
S. aureus DSM 20231 [6], first compound 0.125 µg/mL, partner 0.015 µg/mL | 0.0276
S. aureus DSM 20231 [6], first compound 0.125 µg/mL, partner 0.03 µg/mL | 0.0423
S. aureus Newman [8], first compound 0.0312 µg/mL, partner 0.0075 µg/mL | 0.63
S. aureus Newman [8], first compound 0.0312 µg/mL, partner 0.015 µg/mL | 0.553
S. aureus Newman [8], first compound 0.0625 µg/mL, partner 0.015 µg/mL | 0.361
S. aureus Newman [8], first compound 0.0625 µg/mL, partner 0.03 µg/mL | 0.251
S. aureus Newman [8], first compound 0.125 µg/mL, partner 0.0075 µg/mL | 0.111
S. aureus Newman [8], first compound 0.125 µg/mL, partner 0.015 µg/mL | 0.0621
S. aureus Newman [8], first compound 0.125 µg/mL, partner 0.03 µg/mL | 0.0456
S. pneumoniae D39V [5], first compound 0.0125 µg/mL, partner 0.0312 µg/mL | 0.182
S. pneumoniae D39V [5], first compound 0.0125 µg/mL, partner 0.0625 µg/mL | 0.0996
S. pneumoniae D39V [5], first compound 0.0125 µg/mL, partner 0.125 µg/mL | 0.0702
S. pneumoniae D39V [5], first compound 0.015 µg/mL, partner 0.005 µg/mL | 0.87
S. pneumoniae D39V [5], first compound 0.015 µg/mL, partner 0.01 µg/mL | 0.932
S. pneumoniae D39V [5], first compound 0.015 µg/mL, partner 0.02 µg/mL | 0.88
S. pneumoniae D39V [5], first compound 0.025 µg/mL, partner 0.0312 µg/mL | 0.13
S. pneumoniae D39V [5], first compound 0.025 µg/mL, partner 0.0625 µg/mL | 0.107
S. pneumoniae D39V [5], first compound 0.025 µg/mL, partner 0.125 µg/mL | 0.067
S. pneumoniae D39V [5], first compound 0.03 µg/mL, partner 0.005 µg/mL | 0.778
S. pneumoniae D39V [5], first compound 0.03 µg/mL, partner 0.01 µg/mL | 0.798
S. pneumoniae D39V [5], first compound 0.03 µg/mL, partner 0.02 µg/mL | 0.744
S. pneumoniae D39V [5], first compound 0.05 µg/mL, partner 0.0312 µg/mL | 0.0658
S. pneumoniae D39V [5], first compound 0.05 µg/mL, partner 0.0625 µg/mL | 0.0748
S. pneumoniae D39V [5], first compound 0.05 µg/mL, partner 0.125 µg/mL | 0.0719
S. pneumoniae D39V [5], first compound 0.06 µg/mL, partner 0.005 µg/mL | 0.627
S. pneumoniae D39V [5], first compound 0.06 µg/mL, partner 0.01 µg/mL | 0.674
S. pneumoniae D39V [5], first compound 0.06 µg/mL, partner 0.02 µg/mL | 0.606

fitness, one replicate
Conditions | first compound 0.0039 µg/mL | first compound 0.0078 µg/mL | first compound 0.0156 µg/mL | first compound 0.0312 µg/mL | first compound 0.0625 µg/mL | first compound 0.125 µg/mL
B. subtilis 168 [7], partner 0.0312 µg/mL | 0.73 | 0.575 | 0.5 | – | – | –
B. subtilis 168 [7], partner 0.0625 µg/mL | 0.061 | 0.05 | 0.0579 | – | – | –
B. subtilis 168 [7], partner 0.125 µg/mL | 0.0192 | 0.0118 | 0.0291 | – | – | –
S. aureus DSM 20231 [6], partner 0.06 µg/mL | – | – | – | 0.628 | 0.628 | 0.109
S. aureus DSM 20231 [6], partner 0.12 µg/mL | – | – | – | 0.515 | 0.516 | 0.0784
